Earlier results, collected in paper PMC11187573, “Identification of SARS-CoV-2 Mpro inhibitors through deep reinforcement learning for de novo drug design and computational chemistry approaches” (RSC Medicinal Chemistry, 2024).
Like-named read-outs stand apart in the source and are kept apart here.

Tested on: SARS, SARS-CoV-2 and MERS Mpro
Conditions: cited from earlier work
[1] = Origin COVID_Moonshot, ref COVID Moonshot

SMILES	IC50 (Origin ChEMBL, ref ChEMBL)	IC50 [1]
O=C1C(=O)N(Cc2cc3ccccc3s2)c2ccc(I)cc21 [CHEMBL190743, O=C(c(cc(cc1)I)c1N1Cc2cc(cccc3)c3s2)C1=O]	950 nM	
CC(Cc1ccc(O)c(O)c1)C(C)Cc1ccc(O)c(O)c1 (centres unmarked) [CHEMBL52, CC(Cc(cc1)cc(O)c1O)C(C)Cc(cc1)cc(O)c1O]	2590 nM	
Cc1coc2c1C(=O)C(=O)c1c-2ccc2c1CCCC2(C)C [CHEMBL187266, CC(C)(CCC1)c(cc2)c1c(C1=O)c2-c(occ2C)c2C1=O]	1600 nM	
N#Cc1cccc(C2CN(C(=O)CCl)Cc3ccccc32)c1 (centres unmarked) [NIR-THE-c331be7a-2, N#Cc1cccc(C(CN(C2)C(CCl)=O)c3c2cccc3)c1]		1170 nM
O=[N+]([O-])c1ccc(Sc2cccc[n+]2[O-])c2nonc12 [CHEMBL505670, [O-][N+](c(c1nonc11)ccc1Sc(cccc1)[n+]1[O-])=O]	100 nM	
O=C(/C=C/c1ccc(O)c(O)c1)O[C@H](Cc1ccc(O)c(O)c1)C(=O)O [CHEMBL324842, OC([C@@H](Cc(cc1)cc(O)c1O)OC(/C=C/c(cc1)cc(O)c1O)=O)=O]	3860 nM	
O=C1C(=O)N(Cc2ccc3ccccc3c2)c2ccc(I)cc21 [CHEMBL383725, O=C(c(cc(cc1)I)c1N1Cc2cc3ccccc3cc2)C1=O]	1100 nM	
COCCc1ccc(Cl)cc1CN1CCN(C(=O)CCl)CC1 [MED-COV-4280ac29-37, COCCc(cc1)c(CN(CC2)CCN2C(CCl)=O)cc1Cl]		2200 nM
Cc1ccncc1NC(=O)Cc1cc(Cl)cc(OC2CC(=O)N2)c1 (centres unmarked) [TRY-UNI-2eddb1ff-7, Cc(ccnc1)c1NC(Cc1cc(Cl)cc(OC(C2)NC2=O)c1)=O]		3610 nM
O=C(O)c1ccc(SSc2ccc(C(=O)O)cn2)nc1 [CHEMBL1161936, OC(c(cc1)cnc1SSc(cc1)ncc1C(O)=O)=O]	240 nM	
Oc1cc2c(cc1O)[C@H]1c3ccccc3CN[C@@H]1CC2 [CHEMBL1256832, Oc(cc(CC[C@H]([C@@H]12)NCc3c2cccc3)c1c1)c1O]	1050 nM	
Oc1ccc2ccccc2c1SSc1c(O)ccc2ccccc12 [CHEMBL472940, Oc(ccc1ccccc11)c1SSc(c1ccccc1cc1)c1O]	510 nM	
O=C(CSc1nccc(-c2csc(-c3ccccc3)n2)n1)Nc1cc(Cl)cc(Cl)c1 [CHEMBL208732, O=C(CSc1nc(-c2csc(-c3ccccc3)n2)ccn1)Nc1cc(Cl)cc(Cl)c1]	3000 nM	
Nc1nnc(Sc2ncc([N+](=O)[O-])s2)s1 [CHEMBL510038, Nc1nnc(Sc2ncc([N+]([O-])=O)s2)s1]	30 nM	
CCOc1cc(C(Nc2cc(C)ccn2)c2ccc3cccnc3c2O)ccc1OC (centres unmarked) [CHEMBL1397952, CCOc(cc(C(c(ccc1cccnc11)c1O)Nc1nccc(C)c1)cc1)c1OC]	270 nM	
Cc1ccc(S(=O)(=O)N[C@@H](Cc2ccccc2)C(=O)CCl)cc1 [CHEMBL60718, Cc(cc1)ccc1S(N[C@@H](Cc1ccccc1)C(CCl)=O)(=O)=O]	1370 nM	
Cc1cc(Cl)cc(CC2CCN(C(=O)CCl)CC2)c1 [NIR-THE-0d6461ce-8, Cc1cc(Cl)cc(CC(CC2)CCN2C(CCl)=O)c1]		3570 nM
Cc1cccc2c3c(ccc12)C1=C(C(=O)C3=O)[C@@H](C)CO1 [CHEMBL227075, C[C@@H]1C(C(C(c2c3ccc4c(C)cccc24)=O)=O)=C3OC1]	3050 nM	
O=C1C(=O)N(Cc2cc3ccccc3s2)c2ccc(F)cc21 [CHEMBL187598, O=C(c(cc(cc1)F)c1N1Cc2cc(cccc3)c3s2)C1=O]	4820 nM	
O=C(CCl)N1CCN(Cc2ccsc2)CC1 [LON-WEI-8f408cad-7, O=C(CCl)N1CCN(Cc2cscc2)CC1]		3500 nM

SMILES	IC50 (Origin ChEMBL, ref ChEMBL)	IC50 [1]
O=C1C(=O)N(Cc2cc3ccccc3s2)c2c1cccc2[N+](=O)[O-] [CHEMBL187717, [O-][N+](c(cccc1C2=O)c1N(Cc1cc(cccc3)c3s1)C2=O)=O]	2000 nM	
Cc1cccc(C2CN(C(=O)CCl)Cc3ccccc32)c1 (centres unmarked) [NIR-THE-c331be7a-6, Cc1cccc(C(CN(C2)C(CCl)=O)c3c2cccc3)c1]		2000 nM
O=C(Nc1cccnc1)N(CCC1CCCCC1)c1cccc(Cl)c1 [JOR-UNI-2fc98d0b-12, O=C(Nc1cnccc1)N(CCC1CCCCC1)c1cccc(Cl)c1]		3060 nM
N#Cc1cc(CN2CCN(C(=O)CCl)CC2)c2ccccc2c1 [DAR-DIA-fb20be43-6, N#Cc1cc2ccccc2c(CN(CC2)CCN2C(CCl)=O)c1]		4610 nM
O=C1C(Cl)=C(Cl)C(=O)C(Cl)=C1Cl [CHEMBL192627, O=C(C(Cl)=C(C1=O)Cl)C(Cl)=C1Cl]	20 nM	
O=C(CCl)N1CCN(S(=O)(=O)c2c(F)cccc2F)CC1 [LON-WEI-8f408cad-2, O=C(CCl)N(CC1)CCN1S(c(c(F)ccc1)c1F)(=O)=O]		3280 nM
O=C1C2CC=CCC2C(=O)N1SC(Cl)(Cl)Cl (centres unmarked) [CHEMBL388676, O=C(C(CC=CC1)C1C1=O)N1SC(Cl)(Cl)Cl]	670 nM	
O=C(c1ccc(/C=C/c2n[nH]c3ccccc23)cc1)N1CCNCC1 [CHEMBL1908397, O=C(c1ccc(/C=C/c2n[nH]c3c2cccc3)cc1)N1CCNCC1]	3600 nM	
Cc1c(OCC(F)(F)F)ccnc1C[S+]([O-])c1nc2ccccc2[nH]1 (centres unmarked) [CHEMBL480, Cc(c(C[S+](c1nc(cccc2)c2[nH]1)[O-])ncc1)c1OCC(F)(F)F]	995 nM	
C=CC(=O)c1ccc2ccccc2c1 [CHEMBL154580, C=CC(c1cc2ccccc2cc1)=O]	1240 nM	
C[C@@H]1O[C@@H](Oc2c(-c3cc(O)c(O)c(O)c3)oc3cc(O)cc(O)c3c2=O)[C@@H](O)[C@H](O)[C@H]1O [CHEMBL4303331, C[C@@H]([C@@H]([C@H]([C@@H]1O)O)O)O[C@H]1OC1=C(c(cc2O)cc(O)c2O)Oc(cc(cc2O)O)c2C1=O]	3660 nM	
O=C(Oc1ccc(S(=O)(=O)c2ccc(OC(=O)C(Cl)=C(Cl)Cl)cc2)cc1)C(Cl)=C(Cl)Cl [CHEMBL212454, O=C(C(Cl)=C(Cl)Cl)Oc(cc1)ccc1S(c(cc1)ccc1OC(C(Cl)=C(Cl)Cl)=O)(=O)=O]	900 nM	
CCOC(=O)c1c(N)sc(-c2ccccc2)c1C [CHEMBL566136, CCOC(c1c(N)sc(-c2ccccc2)c1C)=O]	3190 nM	
CCc1ccc(/C=C/C(=O)Nc2ccc(C(C)=O)cc2)o1 [CHEMBL4303618, CCc1ccc(/C=C/C(Nc(cc2)ccc2C(C)=O)=O)o1]	4950 nM	
C[N+]1(C)CCC(OC(=O)C(c2ccccc2)c2ccccc2)CC1 [CHEMBL168067, C[N+](C)(CC1)CCC1OC(C(c1ccccc1)c1ccccc1)=O]	2360 nM	
COc1ccc2[nH]c([S+]([O-])Cc3ncc(C)c(OC)c3C)nc2n1 (centres unmarked) [CHEMBL1475252, Cc1cnc(C[S+](c2nc(nc(cc3)OC)c3[nH]2)[O-])c(C)c1OC]	970 nM	
O=C(NCc1ccc2c(c1)OCO2)c1nc(S(=O)(=O)Cc2ccccc2)ncc1Cl [LON-WEI-4d77710c-10, O=C(c(nc(nc1)S(Cc2ccccc2)(=O)=O)c1Cl)NCc(cc1)cc2c1OCO2]		1400 nM
NC(=O)c1ccc2c(c1)C(=O)C(=O)N2Cc1ccc2ccccc2c1 [CHEMBL358279, NC(c(cc1)cc(C2=O)c1N(Cc1cc3ccccc3cc1)C2=O)=O]	245 nM	
CCOC(=O)c1nc(S(C)(=O)=O)ncc1Cl [LON-WEI-ff7b210a-5, CCOC(c(nc(nc1)S(C)(=O)=O)c1Cl)=O]		1600 nM
CNC(=O)ON(C(C)=O)C(=O)NC [CHEMBL9116, CC(N(C(NC)=O)OC(NC)=O)=O]	1330 nM	

SMILES	IC50 (Origin ChEMBL, ref ChEMBL)	IC50 [1]
O=C(O)CCCCCCCCCCCCCCc1ccc(I)cc1 [CHEMBL128251]	2250 nM	
O=C(CCl)N1CCN(Cc2cc(Cl)cc(Cl)c2)CC1 [PAU-UNI-8cdd41c7-1, O=C(CCl)N1CCN(Cc2cc(Cl)cc(Cl)c2)CC1]		1890 nM
O=C1C=Cc2cc(Br)ccc2C1=O [CHEMBL4303595, O=C(C=Cc1c2ccc(Br)c1)C2=O]	100 nM	
CCC(=O)OCN1C(=O)C=CC1=O [CHEMBL1374426, CCC(OCN(C(C=C1)=O)C1=O)=O]	290 nM	
Nc1nc(S)c2ncn(C3OC(CO)C(O)C3O)c2n1 (centres unmarked) [CHEMBL119171, Nc(nc1S)nc2c1ncn2C(C1O)OC(CO)C1O]	1080 nM	
O=C(CCl)N1CC2CC1CN2Cc1cccc(Cl)c1 (centres unmarked) [DAN-LON-a5fc619e-8, O=C(CCl)N1C(C2)CN(Cc3cccc(Cl)c3)C2C1]		2170 nM
O=c1cc(-c2ccccc2)oc2cc(O)c(O)c(O)c12 [CHEMBL8260, Oc(cc(c1c2O)OC(c3ccccc3)=CC1=O)c2O]	20 nM	
NS(=O)(=O)CCc1ccccc1CN1CCN(C(=O)CCl)CC1 [MIH-UNI-e573136b-5, NS(CCc1c(CN(CC2)CCN2C(CCl)=O)cccc1)(=O)=O]		2720 nM
O=C(CCl)N1CCN(S(=O)(=O)c2cccs2)CC1 [LON-WEI-8f408cad-3, O=C(CCl)N(CC1)CCN1S(c1cccs1)(=O)=O]		2160 nM
Sc1nnc(Nc2ccccc2)s1 [CHEMBL289356, Sc1nnc(Nc2ccccc2)s1]	390 nM	
C[n+]1c2cc(N)ccc2cc2ccc(N)cc21 [CHEMBL354349, C[n+](c1c2)c(cc(cc3)N)c3cc1ccc2N]	3460 nM	
C=CC(=O)N(c1ccc(C(C)(C)C)cc1)C(C(=O)NCCc1cccc(F)c1)c1cccnc1 (centres unmarked) [LON-WEI-adc59df6-47, CC(C)(C)c(cc1)ccc1N(C(C(NCCc1cccc(F)c1)=O)c1cnccc1)C(C=C)=O]		2960 nM
Cc1ccccc1NC(=O)CC1SC(=O)N(c2ccccc2)C1=O (centres unmarked) [LON-WEI-4d77710c-75, Cc(cccc1)c1NC(CC(C(N1c2ccccc2)=O)SC1=O)=O]		443 nM
COCc1cc(Cl)cc(CN2CCN(C(=O)CCl)CC2)c1 [MED-COV-4280ac29-33, COCc1cc(CN(CC2)CCN2C(CCl)=O)cc(Cl)c1]		4770 nM
O=c1c(O)cccc2cc(O)c(O)c(O)c12 [CHEMBL66953, Oc(cc(C=CC=C(C1=O)O)c1c1O)c1O]	4580 nM	
CS(=O)(=O)c1ncc(Cl)c(C(=O)Nc2ccccc2Cc2ccccc2)n1 [LON-WEI-ff7b210a-4, CS(c(nc1)nc(C(Nc2c(Cc3ccccc3)cccc2)=O)c1Cl)(=O)=O]		503 nM
Oc1cc2c(cc1C(c1ccc(C(F)(F)F)cc1)N1CCOCC1)OCO2 (centres unmarked) [CHEMBL3797437, Oc1c(C(c2ccc(C(F)(F)F)cc2)N2CCOCC2)cc2OCOc2c1]	540 nM	
O=C(CCl)N1CCN(Cc2cccc(Cl)c2)CC1 [MED-COV-4280ac29-15, O=C(CCl)N1CCN(Cc2cccc(Cl)c2)CC1]		2840 nM
CCNc1ncc(C#N)cc1CN1CCN(C(=O)CCl)CC1 [DAR-DIA-fb20be43-4, CCNc(nc1)c(CN(CC2)CCN2C(CCl)=O)cc1C#N]		3220 nM
